# Data: patent US4782151A, “Polyprenyl compound and pharmaceutical use” (Eisai Co., Ltd., priority 1984, dated 1988)
# How the values were obtained:
# Pyloric Ligation Ulcer = test: Effect on Pyloric Ligation Ulcer; type: in vivo, Wistar strain male rats; parameters: key to Grade Index G.I. mean ± S.E.: ulcer grade 0–V by eye; larger = more ulcers, V = perforation
# Method: According to the method of Shay et al. described in Gastroenterology, Vol 5, p. 43 (1945), Wistar strain male rats each weighing about 300 g were not given any diet for 48 hours, and then their pyloric segments were ligated. After 15 hours, the abdomen of each of the rats was opened, and the stomach was excised. The stomach was cut open along the side of the greater curvature, and the ulcers developed on the fore-stomach were classified and evaluated with the naked eye into five stages. The larger ulcer index means the more ulcers and index V refers to an example of perforation. The medicines were evaluated by determining their mean ±standard error. […] Cimetidine and propantheline were selected as control medicines.
# (Note) In Table 2, Grade Index was evaluated on the basis of the size,
# number, and severity of ulcers.
# gastric acid secretion = test: Gastric acid secretion inhibiting effect (pylorus-ligated rats, method of Shay); type: in vivo, Wistar strain male rats; settings: for inhibition in vivo at 100 mg/kg: Rattus norvegicus, 100 mg/μg (so in the source), to the duodenum during pyloric ligation, 4 hours, vs control group
# Method: According to the method of H. Shay et a. described in Gastroenterology, Vol. 5, p. 43 (1945), Wistar strain male rats each weighing about 200 g were not given any diet for 24 hours, and their pyloric segments were ligated under etherization. After four hours, the stomachs were excised under deep etherization, and the contents of the stomachs were collected. After determination of the amount, the gastric juice was centrifuged at 3,000 rpm for 10 minutes and the supernatant liquid was titrated by neutralization (at a pH 7.0) with N/50-NaOH by means of an automatic titrator (TTA 81, Radiometer, Copenhagen) to determine the acidity. The amount of the acid which had been secreted for four hours was calculated from the volume of the gastric juice and the acidity. The results are represented in terms of % inhibition with respect to the control group. Each of the compounds tested was emulsified in a 25% decaglyn mixture (polyglycerin fatty acid ester), and 100 mg/μg (dose 0.2 ml/100 g weight) was administered to the duodenum during the ligation of the pyloric segment. In the control group, only the solvent was administered.
# in vivo = settings: mouse, po
# Ethanol-Induced Ulcer = test: Effect on Ethanol-Induced Ulcer; type: in vivo, Wistar male rats
# Method: According to the method of Robert et al., 1 ml/rat of absolute ethanol was administered orally to each of Wistar male rats. After one hour, the stomach of each rat was excised, 10 ml of physiologically saline solution was injected into the stomach, and the stomach was soaked in 5% neutral formalin. Each stomach was cut open along the side of the greater curvature, and the ulcers developed on the glandular stomach were measured for their lengths and the total sum of the lengths was defined as ulcer index.
# Compound B, i.e. N-(2,6,10,14-tetramethyl-18-oxo-2,6,10,14-nonadecatetraenoyl)diethylamine,and compound F, i.e. N-(2,6,10,14-tetramethyl-18-oxo-2,6,10,14-nonadecatetraenoyl)pyrrolidine, were selected as test compounds and emulsified in 2.5% decaglyn mixture, and 12.5 to 100 mg/kg (dose volume 0.2 ml/100 g-weight) was administered orally 30 minutes before administration of ethanol.
# [1] = 100 mg/kg, 15 hours after pylorus ligation
# [2] = 100 mg/kg, N 4 (Compound B), N 10 (Cimetidine)
# [3] = 12.5 mg/kg orally 30 minutes before ethanol
# [4] = 25 mg/kg orally 30 minutes before ethanol
# [5] = 50 mg/kg orally 30 minutes before ethanol
# [6] = 100 mg/kg orally 30 minutes before ethanol
smiles,measurement,setting,value
"CN/C(=N/CCSCc1nc[nH]c1C)NC#N [Cimetidine, reference compound]",Grade Index G.I. mean ± S.E.,Pyloric Ligation Ulcer; [1],3.3 ± 0.7
same,Grade Index 0 (number of animals),Pyloric Ligation Ulcer; [2],2
same,Grade Index I (number of animals),Pyloric Ligation Ulcer; [2],0
same,Grade Index II (number of animals),Pyloric Ligation Ulcer; [2],1
same,Grade Index III (number of animals),Pyloric Ligation Ulcer; [2],2
same,Grade Index IV (number of animals),Pyloric Ligation Ulcer; [2],0
same,Grade Index V (number of animals; perforation),Pyloric Ligation Ulcer; [2],5
CCC(=O)NCC(C)=CCCC(C)=CCCC(C)=CCCC(C)=CCCC(C)=O [Compound K],inhibition in vivo at 100 mg/kg,gastric acid secretion,50.2%
CC(=O)CCC=C(C)CCC=C(C)CCC=C(C)CCC=C(C)C(=O)N(C)C [Compound D],inhibition in vivo at 100 mg/kg,gastric acid secretion,52.6%
same,LD50,in vivo,> 5000 mg/kg
CCNC(=O)C(C)=CCCC(C)=CCCC(C)=CCCC(C)=CCCC(C)=O [Compound C],inhibition in vivo at 100 mg/kg,gastric acid secretion,63.2%
CC(=O)CCC=C(C)CCC=C(C)CCC=C(C)CCC=C(C)C(=O)N1CCOCC1 [Compound A],inhibition in vivo at 100 mg/kg,gastric acid secretion,52.9%
CCN(CC(C)=CCCC(C)=CCCC(C)=CCCC(C)=CCCC(C)=O)C(C)=O [Compound L],inhibition in vivo at 100 mg/kg,gastric acid secretion,62.6%
CCOC(=O)C=C(C)CCC=C(C)CCC=C(C)CCC=C(C)C(=O)N(CC)CC [Compound M],inhibition in vivo at 100 mg/kg,gastric acid secretion,80.6%
"CC(=O)CCC=C(C)CCC=C(C)CCC=C(C)CCC=C(C)C(=O)N1CCCC1 [Compound F, N-(2,6,10,14-tetramethyl-18-oxo-2,6,10,14-nonadecatetraenoyl)pyrrolidine]",inhibition in vivo at 100 mg/kg,gastric acid secretion,76.1%
same,Inhibition (%) of ulcer index,Ethanol-Induced Ulcer; [3],63.2%
same,Ulcer Index Mean ± S.E. (mm),Ethanol-Induced Ulcer; [3],21.4 ± 8.2 mm
same,Inhibition (%) of ulcer index,Ethanol-Induced Ulcer; [4],94.8%
same,Ulcer Index Mean ± S.E. (mm),Ethanol-Induced Ulcer; [4],3.0 ± 1.9 mm
same,Inhibition (%) of ulcer index,Ethanol-Induced Ulcer; [5],85.7%
same,Ulcer Index Mean ± S.E. (mm),Ethanol-Induced Ulcer; [5],8.3 ± 3.4 mm
same,Inhibition (%) of ulcer index,Ethanol-Induced Ulcer; [6],97.1%
same,Ulcer Index Mean ± S.E. (mm),Ethanol-Induced Ulcer; [6],1.7 ± 0.9 mm
same,LD50,in vivo,> 5000 mg/kg
CC(=O)CCC=C(C)CCC=C(C)CCC=C(C)CCC=C(C)C(=O)n1ccnc1 [Compound H],inhibition in vivo at 100 mg/kg,gastric acid secretion,49.1%
"CC(C)[N+](C)(CCOC(=O)C1c2ccccc2Oc2ccccc21)C(C)C [Propantheline bromide, reference compound]",Grade Index 0 (number of animals),"Pyloric Ligation Ulcer; 30 mg/kg, N 10",8
same,Grade Index I (number of animals),"Pyloric Ligation Ulcer; 30 mg/kg, N 10",2
same,Grade Index II (number of animals),"Pyloric Ligation Ulcer; 30 mg/kg, N 10",0
same,Grade Index III (number of animals),"Pyloric Ligation Ulcer; 30 mg/kg, N 10",0
same,Grade Index IV (number of animals),"Pyloric Ligation Ulcer; 30 mg/kg, N 10",0
same,Grade Index V (number of animals; perforation),"Pyloric Ligation Ulcer; 30 mg/kg, N 10",0
same,Grade Index G.I. mean ± S.E.,"Pyloric Ligation Ulcer; 30 mg/kg, 15 hours after pylorus ligation",0.2 ± 0.1
"CCN(CC)C(=O)C(C)=CCCC(C)=CCCC(C)=CCCC(C)=CCCC(C)=O [Compound B, N-(2,6,10,14-tetramethyl-18-oxo-2,6,10,14-nonadecatetraenoyl)diethylamine]",inhibition in vivo at 100 mg/kg,gastric acid secretion,83.5%
same,action of inhibiting acid secretion (in words),"gastric acid secretion; rat, in vivo",powerful action of inhibiting acid secretion
same,Grade Index 0 (number of animals),"Pyloric Ligation Ulcer; 25 mg/kg, N 6",2
same,Grade Index I (number of animals),"Pyloric Ligation Ulcer; 25 mg/kg, N 6",1
same,Grade Index II (number of animals),"Pyloric Ligation Ulcer; 25 mg/kg, N 6",2
same,Grade Index III (number of animals),"Pyloric Ligation Ulcer; 25 mg/kg, N 6",0
same,Grade Index IV (number of animals),"Pyloric Ligation Ulcer; 25 mg/kg, N 6",0
same,Grade Index V (number of animals; perforation),"Pyloric Ligation Ulcer; 25 mg/kg, N 6",1
same,Grade Index G.I. mean ± S.E.,"Pyloric Ligation Ulcer; 25 mg/kg, to the duodenum during pylorus ligation, 15 hours",1.7 ± 0.7
same,Grade Index 0 (number of animals),"Pyloric Ligation Ulcer; 50 mg/kg, N 6",2
same,Grade Index I (number of animals),"Pyloric Ligation Ulcer; 50 mg/kg, N 6",3
same,Grade Index II (number of animals),"Pyloric Ligation Ulcer; 50 mg/kg, N 6",0
same,Grade Index III (number of animals),"Pyloric Ligation Ulcer; 50 mg/kg, N 6",0
same,Grade Index IV (number of animals),"Pyloric Ligation Ulcer; 50 mg/kg, N 6",0
same,Grade Index V (number of animals; perforation),"Pyloric Ligation Ulcer; 50 mg/kg, N 6",1
same,Grade Index G.I. mean ± S.E.,"Pyloric Ligation Ulcer; 50 mg/kg, to the duodenum during pylorus ligation, 15 hours",1.3 ± 0.8
same,Grade Index G.I. mean ± S.E.,Pyloric Ligation Ulcer; [1],0.0 ± 0.0
same,Grade Index 0 (number of animals),Pyloric Ligation Ulcer; [2],4
same,Grade Index I (number of animals),Pyloric Ligation Ulcer; [2],0
same,Grade Index II (number of animals),Pyloric Ligation Ulcer; [2],0
same,Grade Index III (number of animals),Pyloric Ligation Ulcer; [2],0
same,Grade Index IV (number of animals),Pyloric Ligation Ulcer; [2],0
same,Grade Index V (number of animals; perforation),Pyloric Ligation Ulcer; [2],0
same,Grade Index 0 (number of animals),"Pyloric Ligation Ulcer; 200 mg/kg, N 4",4
same,Grade Index I (number of animals),"Pyloric Ligation Ulcer; 200 mg/kg, N 4",0
same,Grade Index II (number of animals),"Pyloric Ligation Ulcer; 200 mg/kg, N 4",0
same,Grade Index III (number of animals),"Pyloric Ligation Ulcer; 200 mg/kg, N 4",0
same,Grade Index IV (number of animals),"Pyloric Ligation Ulcer; 200 mg/kg, N 4",0
same,Grade Index V (number of animals; perforation),"Pyloric Ligation Ulcer; 200 mg/kg, N 4",0
same,Grade Index G.I. mean ± S.E.,"Pyloric Ligation Ulcer; 200 mg/kg, to the duodenum during pylorus ligation, 15 hours",0.0 ± 0.0
same,Inhibition (%) of ulcer index,Ethanol-Induced Ulcer; [3],82.6%
same,Ulcer Index Mean ± S.E. (mm),Ethanol-Induced Ulcer; [3],10.1 ± 5.9 mm
same,Inhibition (%) of ulcer index,Ethanol-Induced Ulcer; [4],97.6%
same,Ulcer Index Mean ± S.E. (mm),Ethanol-Induced Ulcer; [4],1.4 ± 1.0 mm
same,Inhibition (%) of ulcer index,Ethanol-Induced Ulcer; [5],90.4%
same,Ulcer Index Mean ± S.E. (mm),Ethanol-Induced Ulcer; [5],5.6 ± 2.9 mm
same,Inhibition (%) of ulcer index,Ethanol-Induced Ulcer; [6],97.8%
same,Ulcer Index Mean ± S.E. (mm),Ethanol-Induced Ulcer; [6],1.3 ± 1.0 mm
CC(=O)CCC=C(C)CCC=C(C)CCC=C(C)CCC=C(C)C(=O)N(CCO)CCO [Compound E],inhibition in vivo at 100 mg/kg,gastric acid secretion,52.2%
CC(=O)CCC=C(C)CCC=C(C)CCC=C(C)CCC=C(C)C(=O)N1CC=CC1 [Compound I],inhibition in vivo at 100 mg/kg,gastric acid secretion,43.9%
CC(=O)CCC=C(C)CCC=C(C)CCC=C(C)CCC=C(C)CNC(C)=O [Compound J],inhibition in vivo at 100 mg/kg,gastric acid secretion,53%
